Columns and labels:
MRSA biofilm = MRSA biofilm formation inhibition (crystal violet); type: cell-based, methicillin-resistant Staphylococcus aureus; details: Staphylococcus aureus, at 128 µg/mL (highest concentration tested), 24 h, 37 °C, CV staining
Experimental: To assess the ability of ester-functionalized cholinium-based ILs to suppress MRSA biofilm formation, CnECholBr samples were introduced to newly prepared bacterial suspensions. These mixtures were then incubated for 24 h at 37 °C. Subsequently, crystal violet (CV) staining was employed to quantify the biofilm biomass. The findings from this experiment are illustrated in Figure 4.
Antibiofilm activity was assessed against biofilm-forming strains of methicillin-resistant Staphylococcus aureus (MRSA) ATCC 43300 and Candida albicans ATCC 90028. The biofilm inhibition and eradication capacities of ILs were evaluated against adherent bacterial biofilms grown in 96-well microtiter plates. Bacteria were grown on Tryptic soy agar at 37 °C for 24 h and the fungi on Sabouraud agar at 30 °C for 24 h. Bacteria were suspended in lysogeny broth containing glucose (1%) at 1.5 × 10^8 CFU/mL and yeasts were suspended in RPMI medium at 1.5 × 10^7 CFU/mL.
To assess the effect of ionic liquids on bacterial biofilm formation, we employed a microplate assay. We added 100 μL of IL at varying concentrations (2–128 μg/mL, using two-fold serial dilutions) to each well of a 96-well microplate, followed by 100 μL of diluted bacterial suspension. After incubating the plates at 37 °C for 24 h, we measured bacterial growth by recording the optical density at 600 nm (OD600). We then discarded the spent media, fixed the biofilm with methanol, and stained it with crystal violet. Following a water rinse, we dissolved the stained biofilm using an ethanol-acetic acid solution and measured the absorbance at 570 nm to quantify biofilm formation. To ensure reproducibility, we performed each assay in triplicate and averaged the results.

[1] = Critical micelle concentration by pyrene fluorescence; type: physicochemical; details: fluorescence (pyrene I1/I3), aqueous solution, 25 °C
Experimental: The aggregation behavior of ester-functionalized choline-based ILs was investigated through fluorescence measurements using pyrene as a solvatochromic probe. By monitoring the polarity of pyrene’s microenvironment at varying IL concentrations, the intensity ratio of pyrene’s first (I1) and third (I3) vibronic peaks was analyzed (Figure 3). A sharp decline in the I1/I3 ratio indicated the formation of IL aggregates. The critical micelle concentration (CMC) was determined as the midpoint of the transition, with the data fitting well to sigmoidal Boltzmann-type curves.
A Shimadzu RF 540 spectrofluorometer equipped with cell holder thermostatical controlled at 25 °C was used to detect steady-state fluorescence. The fluorescent probe, pyrene, was used at a concentration of 1 × 10^−6 M. After irradiation at 332 nm, the fluorescence emission spectra of pyrene dissolved in aqueous CnECholBr solutions were recorded from 340 to 450 nm.

Vibrio fischeri = Vibrio fischeri bioluminescence inhibition assay; type: cell-based; details: Aliivibrio fischeri, 0.5 h; luminescence inhibition, 30-min exposure, 15 °C; read-out: V. fisheri, EC50 (95% CI)
Experimental: To assess the aquatic toxicity of ester-functionalized cholinium-based ILs, a series of toxicity tests were conducted using the saltwater bacterium Vibrio fischeri. The bioluminescence inhibition assay with V. fischeri is a well-standardized and frequently employed method in ecotoxicological studies due to its sensitivity and reliability. The experimental procedure involved exposing V. fischeri to increasing concentrations of ILs and measuring the reduction in bioluminescence after a 30-min period. This bioluminescence reduction serves as a quantitative indicator of the ILs’ aquatic toxicity in marine bacteria.
The V. fisheri bioluminescence assay was used to assess the aquatic toxicity of ester-functionalized choline-based ILs. […] We determined the concentration causing a 50% reduction in bacterial light emission (EC50) through regression analysis. The reported toxicity data are based on a 30-min exposure of the bacteria to the ionic liquid solution at 15 °C.

Candida albicans = assay: Antifungal MIC broth microdilution; type: cell-based; details: ATCC90028; Candida albicans ATCC 90028, RPMI 1640, 24 h, 30 °C
Experimental: (§1) The antimicrobial activity of cholinium-based ILs with an ester group in the alkyl chain was evaluated against a range of representative bacteria and fungi.
The antifungal activity was evaluated against the following yeasts: Candida albicans ATCC 90028, Candida tropicalis ATCC 7349, Candida parapsilosis ATCC 22019, Candida glabrata ATCC 66032. Frozen yeast stocks were inoculated into Sabourauds’s agar (SBA) and culture plates and incubated at 35 °C for 24 h. Three to four colonies of each strain were dispersed in sterile medium, Roswell Park Memorial Institute medium (RPMI 1640 medium), to obtain dispersions with a turbidity equivalent to 0.5 on the MacFarland scale (McFarland DEN-1B Grant-bio model densitometer). Minimum fungicidal concentrations (MFC) values—the lowest concentration of an antimicrobial agent that prevents the establishment of visible microbial growth after 24 h at 30 °C—were used to determine in vitro antifungal activity. MFCs were determined using a broth microdilution assay. Serial dilutions of each IL, ranging from 512 to 2 µg/mL, were dissolved in RPMI 1640 medium and dispensed (100 µL) into the appropriate wells of a 96-well polystyrene microtiter plate. The nutrient broth starter culture of each yeast strain (100 μL) was added to achieve a final inoculum of approximately 7.5 × 10^5 CFU per mL for yeast. Nutrient broth medium without the compound was used as a growth control. The development of turbidity in an inoculated medium is a function of growth and reflects an increase in both mass and cell number. To confirm this observation, 20 μL of resazurin at 0.015% w/v was added to each well and allowed to react for approximately 2 h at 30 °C. After the incubation period, the indicator of microbial growth, i.e., a change from blue to pink, confirmed the MIC value.

MRSA = assay: MIC broth microdilution; type: cell-based, methicillin-resistant Staphylococcus aureus; details: Staphylococcus aureus, ATCC 43300 / MRSA; MRSA ATCC 43300, 24 h, 37 °C
Experimental: as §1
Antibacterial assays were performed against the following microorganisms: Bacillus subtilis ATCC 6633, Staphylococcus epidermidis ATCC 12228, Staphylococcus aureus ATCC 29213, Micrococcus luteus ATCC10240, Listeria monocytogenes ATCC 15313, methicillin-resistant Staphylococcus aureus ATCC 43300, Escherichia coli ATCC 8739, Acinetobacter baumannii ATCC 19606, Klebsiella aerogenes ATCC 13048, Pseudomonas aeruginosa 9027, and Salmonella enterica ATCC14208. The antibacterial activity was assessed in vitro using the minimum inhibitory concentration (MIC) method. MIC is defined as the lowest concentration of an antimicrobial agent that prevents visible bacterial growth after 24 h of incubation at 37 °C. The ionic liquids were dissolved in Mueller–Hinton broth (MBH) at concentrations ranging from 1 to 256 μg/mL. The broth was added (200 μL) to appropriate wells of a 96-well polystyrene microtitre plate. Then, 10 μL of a nutrient broth starter culture of each bacterial strain was added to achieve final inocula of approximately […] colony forming units (CFU)/mL. A growth control using nutrient broth medium without the ionic liquid was included. The plates were incubated 37 °C for 24 h. Bacterial growth was initially observed visually, with increased turbidity indicating cell growth. […] A color change of resazurine from blue to pink indicated bacterial metabolic activity. All the experiments were performed in triplicate to ensure reproducibility.

CCCCCCCCCCOC(=O)C[N+](C)(C)CCO [C10ECholBr]
inhibition at 128 µg/mL (MRSA biofilm): < 15% | CMC [1]: 9.0 ± 0.5 mM | EC50 (Vibrio fischeri): 1.7 µg/mL | MIC (Candida albicans): > 256 µg/mL | MIC (MRSA): > 256 µg/mL

CCCCCCCCCCCCOC(=O)C[N+](C)(C)CCO [C12ECholBr]
inhibition at 128 µg/mL (MRSA biofilm): > 90% | CMC [1]: 2.9 ± 0.1 mM | EC50 (Vibrio fischeri): 0.27 µg/mL | MIC (Candida albicans): 64 µg/mL | MIC (MRSA): 64 µg/mL

CCCCCCCCCCCCCCOC(=O)C[N+](C)(C)CCO.[Br-] [C14ECholBr, N-(2-hydroxyethyl)-N,N-dimethyl-2-oxo-2-(tetradecyloxy)ethan-1-aminium bromide]
inhibition at 128 µg/mL (MRSA biofilm): ≤ 50% | CMC [1]: 1.3 ± 0.1 mM | EC50 (Vibrio fischeri): 0.44 µg/mL | MIC (Candida albicans): > 256 µg/mL | MIC (MRSA): > 256 µg/mL
